From publication PMC2867821 (Molecular Cancer, 2010)
pKd: −log10 of the molar value. Like-named read-outs stand apart in the source and are kept apart here. Blank lines part the entries; values can stand above or below the molecule they belong to. Residues, ends and D or L forms follow the SMILES beside them. *: point of attachment. Cbz = O=C(OCc1ccccc1)*; CH2F = FC*

Key:
survivin = tested on: survivin; parameters: method as in PMID 17389612, PMID 18537980; details: wide range of tumor cells; cited from earlier work
SK-MEL-110 [1] = experiment: RGDS anti-proliferative effect after pre-treatment with caspase inhibitor; assay type: cell-based, human; details: Z-VAD-FMK 50 μM, 2 h pre-treatment, then RGDS; p < 0.005 vs FGF-2 in the presence of Z-VAD-FMK
SK-MEL-110 [2] = experiment: Proliferation of SK-MEL-110 on collagen-IV with FGF-2 (cell count); assay type: cell-based, human; details: 500 μg/ml, 48 h, FGF-2 10 ng/ml
Protocol: Representative images are reported. […] Three independent experiments were performed.

active caspase-3 = experiment: Caspase-3 activation by confocal microscopy; assay type: cell-based, human; details: 500 μg/ml, 48 h, FGF-2; anti-active caspase-3 antibody
SK-MEL-110 [3] = experiment: Peptide internalization in SK-MEL-110 by FACS (PE-avidin); details: biotinylated peptide
[4] = biological target: T1, GST-C-terminus-survivin (Lys90-Asp142) (Homo sapiens, UniProt O15392); experiment: Solid phase assay, GST-fusion protein; assay type: binding
T1 construct: C-terminus (Lys90-Asp142); made in house; host or cells: E. coli BL21(DE3)pLysS
Protocol: (§1) Three independent experiments were performed.
(§2) Full length survivin and both N-terminus (Met1-Gly99) or C-terminus (Lys90-Asp142) were PCR amplified and cloned, using EcoRI and BamHI restriction sites, in pGex6P2 (GE Healthcare) for expression of GST fusion proteins in E. coli BL21(DE3)pLysS (PROMEGA, Southampton, United Kingdom).
(§3) Briefly, microtiter plates (Costar, Cambridge, MA) were coated with 175 nM (100 μl/well) recombinant GST-fusion proteins diluted in AC7.5 buffer for 4 h at RT. […] After washing four times and incubation for 1 h at RT with 100 μl/well Vectastain-ABC Reagent (Vector Laboratories, Burlingame, CA), wells were stained with the ELISA Amplification System (Invitrogen, Carlsbad, CA) according to manufacturer's instructions and absorption at 495 nm (A495) was determined. Specific binding was computed by subtracting nonspecific from total binding at each concentration. Curve fit was carried out according to the following one-site specific bind equation (GraphPad Prism-4 software):(1) [drawing 1]
(§4) where X is ligand concentration, Y is the specific binding, Bmax is the maximum specific binding in the same units as Y, Kd is the equilibrium binding constant, in the same units as X.

SK-MEL-110 [5] = tested on: SK-MEL-110
GST-Full length survivin = GST-Full length survivin (Homo sapiens, UniProt O15392); experiment: Solid phase assay, GST-fusion protein; assay type: binding; parameters: Full length survivin and both N-terminus (Met1-Gly99) or C-terminus (Lys90-Asp142) were PCR amplified and cloned; made in house; host or cells: E. coli BL21(DE3)pLysS
Protocol: as §1, §2, §3, §4

GST-Full length survivin, sequence (O15392 whole entry, the tested form may be a part): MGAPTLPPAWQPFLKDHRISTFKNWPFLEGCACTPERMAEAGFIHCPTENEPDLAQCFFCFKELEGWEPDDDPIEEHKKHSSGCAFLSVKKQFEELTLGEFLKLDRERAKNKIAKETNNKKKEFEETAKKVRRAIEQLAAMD
T1 sequence (O15392 90-142): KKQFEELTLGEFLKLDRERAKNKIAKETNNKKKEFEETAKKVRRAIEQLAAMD
Protocol for SK-MEL-110 and HUVEC: Cytoplasmic lysates were spotted onto nitrocellulose, blocked with 5% milk in TPBS (0.1% Tween 20 in PBS) and incubated for 1 h at RT with a Vectastain ABC-peroxidase kit (Vector) followed by chemiluminescence reaction and exposure to Kodak film (Eastman Kodak). Interaction was quantified by densitometry (GS 710; Bio-Rad) and analyzed using the "Quantity one" software (Bio-Rad).
Three independent experiments were carried out.

Molecule: Cc1ccc(-c2cc(C(F)(F)F)nn2-c2ccc(S(N)(=O)=O)cc2)cc1 [colecoxib]
- survivin expression (survivin): down-regulate survivin expression

Molecule: COC(=O)C[C@H](NC(=O)[C@H](C)NC(=O)[C@@H](NC(=O)OCc1ccccc1)C(C)C)C(=O)CF [Z-VAD-FMK] (Cbz-Val-Ala-Asp(OMe)-CH2F)
- effect on RGDS anti-proliferative action (SK-MEL-110 [1]): significantly abolished the RGDS anti-proliferative effect

- caspase-3 activation (active caspase-3): no effect on caspase-3 activation
- internalization relative to RGDS (less than RGDS) (SK-MEL-110 [3]; 24 h, RGES less than RGDS): 25%
- positive cells (internalization) (SK-MEL-110 [3]; 24 h incubation, PE-avidin, FACS, three independent experiments): about 30%
- internalization kinetics (SK-MEL-110 [3]; 2, 6, 16 and 24 h, FACS): internalized with slower kinetics
Molecule: Arg-Gly-Glu-Ser [RGES]
- anti-proliferative effect (SK-MEL-110 [2]; collagen-IV): no anti-proliferative effect

Molecule: NC(N)=NCCC[C@H](N)C(=O)NCC(=O)N[C@@H](CC(=O)O)C(=O)N[C@@H](CO)C(=O)O [RGDS, Arg-Gly-Asp-Ser]
- inhibition of FGF-2-induced proliferation (SK-MEL-110 [2]; collagen-IV 50 μg/ml, mean ± SD of 5 experiments in duplicate, RGDS p < 0.005): 46 ± 16%
- pKd [4]: 4.52
- internalization kinetics (SK-MEL-110 [5]): in a time-dependent manner
- internalization in melanoma cells vs HUVEC (SK-MEL-110 and HUVEC): markedly higher in melanoma cells vs HUVEC
- pKd (GST-Full length survivin): 4.56
